Measured values as given in PubChem BioAssay (NCI).
Where “and” joins values, the source holds several entries; their conditions need not be identical. Identical values can stand only once.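 Cells were grown in 96-well plates and exposed to each compound for 48 hours at five concentrations; endpoints were interpolated linearly between bracketing concentrations, or set to the highest concentration if not reached. GI50: concentration for 50% inhibition of growth. TGI denotes the concentration required for complete inhibition of growth.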

How the values were obtained:
Experiment in all cases: DTP human tumour cell line panel, 48 h
[1] = system: 786-0 renal
[2] = system: A549 NSCLC
[3] = system: ACHN renal
[4] = system: CAKI-1 renal
[5] = system: CCRF-CEM leukemia
[6] = system: COLO 205 colon
[7] = system: DLD-1 colon
[8] = system: DMS 273 small cell lung
[9] = system: DU-145 prostate
[10] = system: EKVX NSCLC
[11] = system: HCC-2998 colon
[12] = system: HCT-116 colon
[13] = system: HCT-15 colon
[14] = system: HL-60(TB) leukemia
[15] = system: HOP-18 NSCLC
[16] = system: HOP-62 NSCLC
[17] = system: HOP-92 NSCLC
[18] = system: HS 578T breast
[19] = system: HT29 colon
[20] = system: K-562 leukemia
[21] = system: KM12 colon
[22] = system: KM20L2 colon
[23] = system: LOX IMVI melanoma
[24] = system: M14 melanoma
[25] = system: M19-MEL melanoma
[26] = system: MALME-3M melanoma
[27] = system: MCF7 breast
[28] = system: MDA-MB-231 breast
[29] = system: MDA-MB-435
[30] = system: MDA-N
[31] = system: MOLT-4 leukemia
[32] = system: NCI-H226 lung
[33] = system: NCI-H23 lung
[34] = system: NCI-H460 lung
[35] = system: NCI-H522 lung
[36] = system: NCI/ADR-RES ovarian
[37] = system: OVCAR-3 ovarian
[38] = system: OVCAR-5 ovarian
[39] = system: OVCAR-8 ovarian
[40] = system: PC-3 prostate
[41] = system: RPMI-8226 leukemia
[42] = system: RXF 393 renal
[43] = system: RXF-631 renal
[44] = system: SF-268 CNS
[45] = system: SF-295 CNS
[46] = system: SF-539 CNS
[47] = system: SK-MEL-2 melanoma
[48] = system: SK-MEL-28 melanoma
[49] = system: SK-MEL-5 melanoma
[50] = system: SK-OV-3 ovarian
[51] = system: SN12C renal
[52] = system: SNB-19 CNS
[53] = system: SNB-75 CNS
[54] = system: SNB-78 CNS
[55] = system: SR leukemia
[56] = system: SW-620 colon
[57] = system: T-47D breast
[58] = system: TK-10 renal
[59] = system: U251 CNS
[60] = system: UACC-257 melanoma
[61] = system: UACC-62 melanoma
[62] = system: UO-31 renal
[63] = system: XF 498 CNS

Structure (SMILES): C=C1C(=O)C23CC1CCC2C12CO[C@@]3(O)[C@@H](O)C1C(C)(C)C=CC2=O (some centres undefined)
- GI50 [1]: 1.75 µM
- TGI [1]: 1.24 µM and 3.59 µM
- GI50 [2]: 16.3 µM
- TGI [2]: 7.63 µM and 34.3 µM
- GI50 [3]: 3.36 µM
- TGI [3]: 1.42 µM and 11.5 µM
- TGI [4]: 4.13 µM
- GI50 [5]: 0.759 µM
- GI50 [6]: 3.18 µM
- TGI [6]: 1.86 µM and 10.1 µM
- TGI [7]: 2.22 µM
- TGI [8]: 1.3 µM
- TGI [9]: 41.3 µM
- GI50 [10]: 18.7 µM
- TGI [10]: 11.8 µM and 34.7 µM
- GI50 [11]: 20.7 µM
- GI50 [12]: 2.9 µM
- TGI [12]: 1.01 µM and 9.03 µM
- GI50 [13]: 1.81 µM
- TGI [13]: 1.86 µM and 3.65 µM
- GI50 [14]: 0.434 µM
- TGI [15]: 2.2 µM
- GI50 [16]: 25.2 µM
- TGI [16]: 14.4 µM and 67.2 µM
- GI50 [17]: 2.92 µM
- TGI [17]: 1.46 µM and 5.41 µM
- TGI [18]: 81.6 µM
- GI50 [19]: 2.12 µM
- TGI [19]: 0.756 µM and 5.49 µM
- TGI [20]: > 100 µM
- TGI [21]: 29.5 µM
- TGI [22]: 4.39 µM
- TGI [23]: 11.5 µM
- TGI [24]: 6.1 µM
- TGI [25]: 1.72 µM
- GI50 [26]: 6.11 µM
- TGI [27]: 11.6 µM
- TGI [28]: 12 µM
- TGI [29]: 11.1 µM
- TGI [30]: 7.71 µM
- GI50 [31]: 2.6 µM
- TGI [31]: 2.15 µM and 9.87 µM
- TGI [32]: 12.5 µM
- GI50 [33]: 2.9 µM
- TGI [33]: 1.42 µM and 7.88 µM
- GI50 [34]: 14.7 µM
- TGI [35]: 4.09 µM
- TGI [36]: 60.4 µM
- TGI [37]: 2.75 µM
- GI50 [38]: 25 µM
- TGI [38]: 9.96 µM and 40.5 µM
- GI50 [39]: 3.37 µM
- TGI [40]: 7.53 µM
- TGI [41]: 21.7 µM
- TGI [42]: 1.34 µM
- TGI [43]: 2.33 µM
- GI50 [44]: 3.11 µM
- TGI [44]: 6.77 µM and 11 µM
- GI50 [45]: 18.1 µM
- TGI [45]: 4.79 µM and 32 µM
- GI50 [46]: 4.43 µM
- TGI [46]: 1.8 µM and 13.4 µM
- TGI [47]: 1.99 µM
- GI50 [48]: 1.58 µM
- TGI [48]: 1.48 µM and 3.35 µM
- TGI [49]: 19.1 µM
- GI50 [50]: 26.1 µM
- TGI [50]: 13.7 µM and 54.5 µM
- GI50 [51]: 2.03 µM
- TGI [51]: 3.87 µM and 4.05 µM
- GI50 [52]: 20.4 µM
- GI50 [53]: 13.6 µM
- TGI [53]: 12.7 µM and 26.4 µM
- TGI [54]: 2.23 µM
- GI50 [55]: 0.721 µM
- TGI [55]: 43.6 µM and 16.1 µM
- TGI [56]: 10.2 µM
- TGI [57]: 33.1 µM
- GI50 [58]: 4.51 µM
- TGI [58]: 1.55 µM and 11.2 µM
- GI50 [59]: 16.7 µM
- TGI [59]: 5.15 µM and 33.3 µM
- GI50 [60]: 2.49 µM
- TGI [60]: 1.33 µM and 7.8 µM
- GI50 [61]: 4.89 µM
- TGI [61]: 2.37 µM and 19.3 µM
- GI50 [62]: 8.37 µM
- TGI [62]: 4.2 µM and 20.4 µM
- TGI [63]: 1.42 µM
